Targets include Carbonic anhydrase 9 (Homo sapiens, UniProt Q16790); Carbonic anhydrase 3 (Homo sapiens, UniProt P07451); Carbonic anhydrase 7 (Homo sapiens, UniProt P43166); Carbonic anhydrase 12 (Homo sapiens, UniProt O43570).
The next test has as its target Carbonic anhydrase 1 (Homo sapiens, UniProt P00915). Kind of test: Inhibition of human CA1 preincubated for 15 mins by phenol red staining based stopped flow CO2 hydrase assay.
The next test deals with Carbonic anhydrase 2 (Homo sapiens, UniProt P00918). Kind of test: Inhibition of human CA2 preincubated for 15 mins by phenol red staining based stopped flow CO2 hydrase assay.
For another test, the target named is Carbonic anhydrase 4 (Homo sapiens, UniProt P22748). Kind of test: Inhibition of human CA4 preincubated for 15 mins by phenol red staining based stopped flow CO2 hydrase assay.
Chain of Carbonic anhydrase 4 (P22748 whole entry): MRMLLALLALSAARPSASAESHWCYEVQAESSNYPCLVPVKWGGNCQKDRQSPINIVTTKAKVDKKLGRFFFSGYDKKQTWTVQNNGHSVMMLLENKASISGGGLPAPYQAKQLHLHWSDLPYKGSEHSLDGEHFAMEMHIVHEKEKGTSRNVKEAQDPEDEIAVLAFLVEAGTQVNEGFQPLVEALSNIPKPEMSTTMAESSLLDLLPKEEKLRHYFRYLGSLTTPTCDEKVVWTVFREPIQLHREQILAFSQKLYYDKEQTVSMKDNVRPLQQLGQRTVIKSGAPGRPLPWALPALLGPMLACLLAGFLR
Test [1] has as its target Carbonic anhydrase 5A, mitochondrial (Homo sapiens, UniProt P35218). Kind of test: Inhibition of human CA VA preincubated for 15 mins by phenol red staining based stopped flow CO2 hydrase assay.
Test [2] deals with Carbonic anhydrase 5B, mitochondrial (Homo sapiens, UniProt Q9Y2D0). Kind of test: Inhibition of human CA VB preincubated for 15 mins by phenol red staining based stopped flow CO2 hydrase assay.
Chain of Carbonic anhydrase 5B, mitochondrial (Q9Y2D0 whole entry): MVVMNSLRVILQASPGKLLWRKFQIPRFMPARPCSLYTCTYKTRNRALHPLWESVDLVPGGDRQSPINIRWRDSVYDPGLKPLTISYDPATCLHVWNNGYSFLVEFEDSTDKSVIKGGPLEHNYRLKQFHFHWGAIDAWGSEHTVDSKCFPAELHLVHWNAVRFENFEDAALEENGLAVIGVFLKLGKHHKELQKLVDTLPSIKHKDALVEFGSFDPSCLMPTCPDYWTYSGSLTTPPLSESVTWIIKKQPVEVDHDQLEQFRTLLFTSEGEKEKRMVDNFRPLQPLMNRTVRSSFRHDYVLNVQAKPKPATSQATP
A further test has as its target Carbonic anhydrase 6 (Homo sapiens, UniProt P23280). Kind of test: Inhibition of human CA6 preincubated for 15 mins by phenol red staining based stopped flow CO2 hydrase assay.
A further test concerns the target Carbonic anhydrase 13 (Homo sapiens, UniProt Q8N1Q1). Description: Inhibition of human CA13 preincubated for 15 mins by phenol red staining based stopped flow CO2 hydrase assay.
Another test concerns the target Carbonic anhydrase 14 (Homo sapiens, UniProt Q9ULX7). Description: Inhibition of human CA14 preincubated for 15 mins by phenol red staining based stopped flow CO2 hydrase assay.

This passage reports Ki results from ChEMBL document CHEMBL6074704, “The Antiepileptic Drug Levetiracetam Inhibits Carbonic Anhydrase: In Vitro and In Silico Studies on Catalytically Active Human Isoforms” (ACS Med Chem Lett, 2024).

Chain of Carbonic anhydrase 3 (P07451 whole entry): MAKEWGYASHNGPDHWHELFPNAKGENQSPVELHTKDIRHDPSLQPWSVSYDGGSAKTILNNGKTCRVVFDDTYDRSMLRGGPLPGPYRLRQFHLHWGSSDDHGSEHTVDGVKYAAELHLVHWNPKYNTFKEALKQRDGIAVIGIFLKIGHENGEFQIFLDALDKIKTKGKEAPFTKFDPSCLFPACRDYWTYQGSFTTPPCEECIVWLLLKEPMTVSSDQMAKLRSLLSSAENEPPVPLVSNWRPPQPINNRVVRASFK
Chain of Carbonic anhydrase 5A, mitochondrial (P35218 whole entry): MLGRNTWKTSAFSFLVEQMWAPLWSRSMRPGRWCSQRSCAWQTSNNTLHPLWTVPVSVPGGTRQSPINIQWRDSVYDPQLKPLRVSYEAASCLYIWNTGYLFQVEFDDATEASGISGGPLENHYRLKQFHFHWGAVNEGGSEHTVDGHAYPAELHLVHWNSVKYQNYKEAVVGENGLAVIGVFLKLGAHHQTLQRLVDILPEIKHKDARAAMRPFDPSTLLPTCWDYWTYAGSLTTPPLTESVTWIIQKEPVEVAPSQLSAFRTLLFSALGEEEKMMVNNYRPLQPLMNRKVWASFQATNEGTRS
Chain of Carbonic anhydrase 12 (O43570 whole entry): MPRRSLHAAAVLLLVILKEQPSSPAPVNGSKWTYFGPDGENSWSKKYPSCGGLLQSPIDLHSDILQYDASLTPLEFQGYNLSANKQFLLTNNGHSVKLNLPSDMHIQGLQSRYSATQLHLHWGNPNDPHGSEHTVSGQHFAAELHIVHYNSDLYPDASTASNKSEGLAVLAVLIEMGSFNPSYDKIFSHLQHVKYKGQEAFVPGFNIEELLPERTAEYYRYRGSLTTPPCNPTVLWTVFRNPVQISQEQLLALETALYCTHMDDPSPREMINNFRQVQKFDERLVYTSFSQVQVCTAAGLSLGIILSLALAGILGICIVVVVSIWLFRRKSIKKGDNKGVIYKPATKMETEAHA
Chain of Carbonic anhydrase 13 (Q8N1Q1 whole entry): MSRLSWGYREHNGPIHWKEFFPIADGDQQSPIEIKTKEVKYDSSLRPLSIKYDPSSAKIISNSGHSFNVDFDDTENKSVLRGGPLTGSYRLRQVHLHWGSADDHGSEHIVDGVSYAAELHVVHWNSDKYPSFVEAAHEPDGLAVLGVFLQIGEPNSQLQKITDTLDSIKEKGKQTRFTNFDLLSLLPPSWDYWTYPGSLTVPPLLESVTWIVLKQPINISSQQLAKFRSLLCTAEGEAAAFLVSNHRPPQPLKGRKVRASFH
Chain of Carbonic anhydrase 7 (P43166 whole entry): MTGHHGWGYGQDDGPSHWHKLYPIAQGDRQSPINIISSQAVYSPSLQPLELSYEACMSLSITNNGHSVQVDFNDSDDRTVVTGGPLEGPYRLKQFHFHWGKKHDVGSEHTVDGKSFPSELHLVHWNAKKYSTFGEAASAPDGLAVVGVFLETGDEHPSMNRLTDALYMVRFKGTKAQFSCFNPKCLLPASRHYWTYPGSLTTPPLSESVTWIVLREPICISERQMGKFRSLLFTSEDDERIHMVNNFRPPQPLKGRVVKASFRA
Chain of Carbonic anhydrase 14 (Q9ULX7 whole entry): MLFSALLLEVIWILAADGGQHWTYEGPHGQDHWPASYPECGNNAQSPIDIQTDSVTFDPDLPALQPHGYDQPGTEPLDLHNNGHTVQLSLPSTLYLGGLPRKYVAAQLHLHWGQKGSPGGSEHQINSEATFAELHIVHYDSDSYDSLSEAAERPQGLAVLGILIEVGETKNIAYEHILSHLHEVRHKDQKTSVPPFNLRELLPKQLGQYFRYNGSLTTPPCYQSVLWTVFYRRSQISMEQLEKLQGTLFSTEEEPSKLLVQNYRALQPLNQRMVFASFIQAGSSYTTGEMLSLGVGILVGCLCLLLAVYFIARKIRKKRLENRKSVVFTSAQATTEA
Chain of Carbonic anhydrase 6 (P23280 whole entry): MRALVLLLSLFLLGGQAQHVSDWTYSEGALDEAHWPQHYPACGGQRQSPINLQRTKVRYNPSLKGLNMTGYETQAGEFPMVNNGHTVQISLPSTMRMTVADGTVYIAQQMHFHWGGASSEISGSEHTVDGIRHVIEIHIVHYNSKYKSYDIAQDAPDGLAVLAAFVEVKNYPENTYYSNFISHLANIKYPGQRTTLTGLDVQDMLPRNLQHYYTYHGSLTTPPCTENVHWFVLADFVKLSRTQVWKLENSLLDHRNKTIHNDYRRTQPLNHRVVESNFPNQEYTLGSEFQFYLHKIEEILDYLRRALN
Chain of Carbonic anhydrase 1 (P00915 whole entry): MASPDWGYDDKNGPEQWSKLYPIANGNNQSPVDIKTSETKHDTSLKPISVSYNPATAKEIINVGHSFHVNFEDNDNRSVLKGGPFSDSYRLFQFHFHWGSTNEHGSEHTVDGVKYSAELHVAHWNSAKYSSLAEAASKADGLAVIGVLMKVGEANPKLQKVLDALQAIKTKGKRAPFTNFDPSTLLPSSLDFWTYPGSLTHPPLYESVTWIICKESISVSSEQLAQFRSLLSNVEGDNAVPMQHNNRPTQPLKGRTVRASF
Description for Carbonic anhydrase 12: Inhibition of human CA12 preincubated for 15 mins by phenol red staining based stopped flow CO2 hydrase assay
Description for Carbonic anhydrase 3: Inhibition of human CA3 preincubated for 15 mins by phenol red staining based stopped flow CO2 hydrase assay
Description for Carbonic anhydrase 7: Inhibition of human CA7 preincubated for 15 mins by phenol red staining based stopped flow CO2 hydrase assay

By Ki is commonly meant a dissociation constant, usually derived from enzyme kinetics or from competition with a known ligand. For the compound `CC[C@@H](C(N)=O)N1CCCC1=O`, the Ki came out at 7.95 µM at Carbonic anhydrase 1; 3.92 µM at Carbonic anhydrase 2; 5.3 µM on Carbonic anhydrase 4; 9.2 µM in test [1]; 3.86 µM in test [2]; 8.4 µM at Carbonic anhydrase 6. The Ki at Carbonic anhydrase 9 came to 0.089 µM; at Carbonic anhydrase 13 it was 4.17 µM; at Carbonic anhydrase 14 it was 2.27 µM; at Carbonic anhydrase 3 it was 2.44 µM; on Carbonic anhydrase 7, 7.55 µM; on Carbonic anhydrase 12, 0.054 µM.
